The record followed here is ChEMBL document CHEMBL4814009, “A new anti-austerity agent, 4'-O-methylgrynullarin from Derris scandens induces PANC-1 human pancreatic cancer cell death under nutrition starvation via inhibition of Akt/mTOR pathway” (2021).

The structures appear in SMILES notation.

The nature of assay [1]: Anti-austerity activity against human KLM-1 cells assessed as cell killing in nutrient deprived medium. Format: functional.
Assay [2] deals with PANC-1. In words: Anti-austerity activity against human PANC-1 cells assessed as cell killing in nutrient deprived medium. Format: functional.
In assay [3] the test system is PSN1. Description: Anti-austerity activity against human PSN1 cells assessed as cell killing in nutrient deprived medium. It is filed as functional.
Assay [4] deals with MIA PaCa-2. Description: Anti-austerity activity against human MIA PaCa-2 cells assessed as cell killing in nutrient deprived medium. It is filed as functional.
The subject of assay [5] is PANC-1. Description: Antimigratory activity against human PANC1 cells assessed as wound area at 25 uM cultured in nutrient rich DMEM medium imaged every 10 mins for 24 hrs by quantitative real-time imaging based wound healing assay (reference value: 35%). It is filed as functional.
The target of assay [6] is Serine/threonine-protein kinase mTOR (Homo sapiens) (UniProt P42345). Description: Inhibition of mTOR in human PANC-1 cells assessed as reduction in phosphorylation at S2448 incubated for 6 hrs by Western blot analysis. The settings on record: dose 1-10 µM. It is filed as cell-based. (In general: In western blotting, separated proteins are transferred to a membrane and probed.)

Assay [7] concerns the target RAC-alpha serine/threonine-protein kinase (Homo sapiens) (UniProt P31749). Description: Inhibition of Akt in human PANC-1 cells assessed as reduction in phosphorylation at Ser473 incubated for 6 hrs by Western blot analysis. It is filed as cell-based. The conditions noted are these: dose 1-10 µM.
For assay [8], the system named is PANC-1. Description: Inhibition of colony formation in human PANC-1 cells in nutrient rich DMEM medium measured treated for 24 hrs followed by replaced with fresh medium measured after 10 days by crystal violet staining based assay. Format: functional, cell-based. The conditions noted are these: dose 6.25-25 µM.
For assay [9], the system named is PANC-1. In words: Induction of apoptosis in human PANC-1 cells assessed as cell morphology by measuring red fluorescence incubated for 24 hrs in nutrient deprived medium by acridine orange and ethidium bromide dye based fluorescence microscopy analysis. Format: functional. The settings on record: dose 1-5 µM.

Sequence of RAC-alpha serine/threonine-protein kinase (Homo sapiens) (P31749 whole entry): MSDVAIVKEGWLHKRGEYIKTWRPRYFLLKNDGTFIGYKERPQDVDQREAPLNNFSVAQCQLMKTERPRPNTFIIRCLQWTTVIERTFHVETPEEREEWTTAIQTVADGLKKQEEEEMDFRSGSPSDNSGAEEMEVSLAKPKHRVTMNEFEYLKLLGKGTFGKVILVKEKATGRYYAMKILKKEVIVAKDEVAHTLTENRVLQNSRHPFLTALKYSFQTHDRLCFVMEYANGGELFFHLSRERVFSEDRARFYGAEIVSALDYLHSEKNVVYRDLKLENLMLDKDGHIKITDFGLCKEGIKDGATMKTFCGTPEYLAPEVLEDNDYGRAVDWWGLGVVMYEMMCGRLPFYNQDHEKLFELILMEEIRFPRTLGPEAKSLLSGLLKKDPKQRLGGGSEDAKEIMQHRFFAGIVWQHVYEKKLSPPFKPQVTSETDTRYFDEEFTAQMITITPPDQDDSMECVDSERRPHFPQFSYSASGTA

As to `COc1cc(C[C@H]2C(=O)OC[C@@H]2Cc2ccc(OC)c(OC)c2)ccc1O` [ARCTIGENIN], the PC50 in assay [1] stood at 0.8 µM; in [2], 0.7 µM; in assay [3], 0.7 µM; in [4], 1.9 µM.

For the compound `CC(C)=CCc1cc(-c2coc3c(CC=C(C)C)c(O)cc(O)c3c2=O)cc(O)c1O`, the PC50 worked out at 10.1 µM in [1], 10 µM in [2], 10.2 µM in [3] and 10.9 µM in [4].

Take `CC(C)=CCc1cc(-c2coc3cc(O)c(CC=C(C)C)c(O)c3c2=O)cc(O)c1O`: the PC50 amounted to 0.9 µM in [1], 0.7 µM in assay [2], 0.7 µM in assay [3] and 0.8 µM in assay [4].

As to `CC(C)=CCc1cc(-c2coc3cc(O)c(CC=C(C)C)c(O)c3c2=O)ccc1O` [LUPALBIGENIN], the PC50 in assay [1] came out at 1 µM; in [2], 1 µM; in [3], 1.5 µM; in assay [4], 1.3 µM.

Regarding `COc1c(O)cc(-c2coc3c(CC=C(C)C)c(O)cc(O)c3c2=O)cc1CC=C(C)C`, the Activity in assay [5] was 74%; in assay [9] it was “Dose-Dependent Effect”. The PC50 worked out at 1.6 µM in [1], 1 µM in assay [2], 1.8 µM in [3] and 1.2 µM in [4]. In addition, the inhibition result in assay [6], in [7] and in [8] was “Dose-Dependent Effect” throughout.
